Laboratory results from patent publication US12077503B2, “Substituted cyclic amides and their use as herbicides” (FMC CORPORATION, priority 2015, dated 2024).

Assays:
Assay type in all cases: in vivo
corn (Zea mays) [1] = assay: Test G Post-Emergence Protocol
Protocol: (§1) Seeds of corn (Zea mays), giant foxtail (Setaria faberi), barnyardgrass (Echinochloa crus-galli), ivy-leaved morning glory (Ipomoea hederacea), redroot pigweed (Amaranthus retroflexus) and velvetleaf (Abutilon theophrasti) were sown in standard soil in pots. After cultivation for 8 days under controlled conditions in a glasshouse (at 24/16° C., day/night; 14 hours light; 65% humidity), the plants were sprayed with an aqueous spray solution derived from the formulation of the technical active ingredient in acetone/water (50:50) solution containing 0.5% Tween 20 (polyoxyethylene sorbitan monolaurate, CAS RN 9005-64-5) to give a final dose of 15.625, 62.5 or 250 g/ha of test compound.
(§2) The test plants were then grown on under controlled conditions in a glasshouse (at 24/16° C., day/night; 14 hours light; 65% humidity) and watered twice daily. After 13 days the test was evaluated (100=total damage to plant; 0=no damage to plant). A dash (-) means no test result.

[2] = system: ivy-leaved morning glory (Ipomoea hederacea); assay: Test G Post-Emergence Protocol
Protocol: as §1, §2

[3] = system: giant foxtail (Setaria faberi); assay: Test G Post-Emergence Protocol
Protocol: as §1, §2

[4] = system: redroot pigweed (Amaranthus retroflexus); assay: Test G Post-Emergence Protocol
Protocol: as §1, §2

[5] = system: velvetleaf (Abutilon theophrasti); assay: Test G Post-Emergence Protocol
Protocol: as §1, §2

[6] = system: barnyardgrass (Echinochloa crus-galli); assay: Test G Post-Emergence Protocol
Protocol: as §1, §2

corn (Zea mays) [7] = assay: Test G Pre-Emergence Protocol; conditions: evaluated after 13 days
Protocol: as §1, with “one day” for “8 days”
as §2

[8] = system: ivy-leaved morning glory (Ipomoea hederacea); assay: Test G Pre-Emergence Protocol; conditions: evaluated after 13 days; for Morningglory, Ivy-leaved damage rating (100=total damage to plant; 0=no damage to plant): 250 g ai/ha
Protocol: as §1, with “one day” for “8 days”
as §2

[9] = system: giant foxtail (Setaria faberi); assay: Test G Pre-Emergence Protocol; conditions: evaluated after 13 days
Protocol: as §1, with “one day” for “8 days”
as §2

[10] = system: redroot pigweed (Amaranthus retroflexus); assay: Test G Pre-Emergence Protocol; conditions: evaluated after 13 days
Protocol: as §1, with “one day” for “8 days”
as §2

[11] = system: velvetleaf (Abutilon theophrasti); assay: Test G Pre-Emergence Protocol; conditions: evaluated after 13 days
Protocol: as §1, with “one day” for “8 days”
as §2

[12] = system: barnyardgrass (Echinochloa crus-galli); assay: Test G Pre-Emergence Protocol; conditions: evaluated after 13 days
Protocol: as §1, with “one day” for “8 days”
as §2

[13] = 15.625 g ai/ha, evaluated after 13 days (100=total damage to plant; 0=no damage to plant)
[14] = 62.5 g ai/ha, evaluated after 13 days
[15] = 250 g ai/ha, evaluated after 13 days
[16] = 62.5 g ai/ha, 100=total damage to plant, 0=no damage to plant
[17] = 62.5 g ai/ha, evaluated after 13 days, 100=total damage to plant, 0=no damage to plant
[18] = 250 g ai/ha, evaluated after 13 days, 100=total damage to plant, 0=no damage to plant

SMILES: CN1CC(c2ccc(C(F)(F)F)cc2)C(C(=O)Nc2cccc(F)c2[N+](=O)[O-])C1=O (racemic) [Compound 1546]
- Corn damage rating (corn (Zea mays) [1]; [13]): 0
- Corn damage rating (100=total damage to plant; 0=no damage to plant) (corn (Zea mays) [1]; [14]): 20
- damage to plant, Corn (100=total damage to plant; 0=no damage to plant) (corn (Zea mays) [1]; [15]): 50
- Morningglory, Ivy-leaved damage rating [2, 13]: 0
- Morningglory, Ivy-leaved damage rating (100=total damage to plant; 0=no damage to plant) [2, 14]: 20
- damage to plant, Morningglory, Ivy-leaved (100=total damage to plant; 0=no damage to plant) [2, 15]: 30
- Foxtail, Giant damage rating [3, 13]: 60
- Foxtail, Giant damage rating (100=total damage to plant; 0=no damage to plant) [3, 14]: 80
- damage to plant, Foxtail, Giant (100=total damage to plant; 0=no damage to plant) [3, 15]: 80
- Pigweed, Redroot damage rating [4, 13]: 30
- Pigweed, Redroot damage rating (100=total damage to plant; 0=no damage to plant) [4, 14]: 60
- damage to plant, Pigweed, Redroot (100=total damage to plant; 0=no damage to plant) [4, 15]: 60
- Velvetleaf damage rating [5, 13]: 0
- Velvetleaf damage rating (100=total damage to plant; 0=no damage to plant) [5, 14]: 0
- damage to plant, Velvetleaf (100=total damage to plant; 0=no damage to plant) [5, 15]: 10
- Barnyardgrass damage rating [6, 13]: 40
- Barnyardgrass damage rating (100=total damage to plant; 0=no damage to plant) [6, 14]: 70
- damage to plant, Barnyardgrass (100=total damage to plant; 0=no damage to plant) [6, 15]: 80
- Corn damage rating (100=total damage to plant; 0=no damage to plant) (corn (Zea mays) [7]; 15.625 g ai/ha): 0
- plant damage rating, Corn (corn (Zea mays) [7]; [16]): 10
- Corn damage rating (100=total damage to plant; 0=no damage to plant) (corn (Zea mays) [7]; 250 g ai/ha): 40
- Morning-glory, Ivy-leaved damage rating (100=total damage to plant; 0=no damage to plant) ([8]; 15.625 g ai/ha): 0
- plant damage rating, Morningglory, Ivy-leaved [8, 16]: 20
- Morningglory, Ivy-leaved damage rating (100=total damage to plant; 0=no damage to plant) [8]: 40
- Foxtail, Giant damage rating (100=total damage to plant; 0=no damage to plant) ([9]; 15.625 g ai/ha): 60
- plant damage rating, Foxtail, Giant [9, 16]: 80
- Foxtail, Giant damage rating (100=total damage to plant; 0=no damage to plant) ([9]; 250 g ai/ha): 90
- Pigweed, Redroot damage rating (100=total damage to plant; 0=no damage to plant) ([10]; 15.625 g ai/ha): 0
- plant damage rating, Pigweed, Redroot [10, 16]: 30
- Pigweed, Redroot damage rating (100=total damage to plant; 0=no damage to plant) ([10]; 250 g ai/ha): 70
- Velvetleaf damage rating (100=total damage to plant; 0=no damage to plant) ([11]; 15.625 g ai/ha): 0
- plant damage rating, Velvetleaf [11, 16]: 0
- Velvetleaf damage rating (100=total damage to plant; 0=no damage to plant) ([11]; 250 g ai/ha): 0
- Barnyardgrass damage rating (100=total damage to plant; 0=no damage to plant) ([12]; 15.625 g ai/ha): 0
- plant damage rating, Barnyardgrass [12, 16]: 20
- Barnyardgrass damage rating (100=total damage to plant; 0=no damage to plant) ([12]; 250 g ai/ha): 80

SMILES: CN1C[C@@H](c2ccc(C(F)(F)F)cc2)[C@H](C(=O)Nc2cccnc2F)C1=O (racemic) [Compound 1653]
- Corn damage rating (corn (Zea mays) [1]; [17]): 30
- Corn damage rating (corn (Zea mays) [1]; [18]): 70
- plant injury at 15.625 g/ha (corn (Zea mays) [1]; Zea mays, post-emergence, 312 h, 15.625 g ai/ha, evaluated after 13 days (100=total damage to plant; 0=no damage to plant), read-out: Corn damage rating): 0%
- Morningglory, Ivy-leaved damage rating [2, 13]: 10
- Morningglory, Ivy-leaved damage rating [2, 17]: 30
- Morningglory, Ivy-leaved damage rating [2, 18]: 40
- Foxtail, Giant damage rating [3, 13]: 60
- Foxtail, Giant damage rating [3, 17]: 80
- Foxtail, Giant damage rating [3, 18]: 80
- Pigweed, Redroot damage rating [4, 17]: 70
- Pigweed, Redroot damage rating [4, 18]: 80
- pest or weed control at 15.625 g/ha ([4]; Amaranthus retroflexus, post-emergence, 312 h, 15.625 g ai/ha, evaluated after 13 days (100=total damage to plant; 0=no damage to plant), read-out: Pigweed, Redroot damage rating): 0%
- Velvetleaf damage rating [5, 17]: 40
- Velvetleaf damage rating [5, 18]: 50
- pest or weed control at 15.625 g/ha ([5]; Abutilon theophrasti, post-emergence, 312 h, 15.625 g ai/ha, evaluated after 13 days (100=total damage to plant; 0=no damage to plant), read-out: Velvetleaf damage rating): 0%
- Barnyardgrass damage rating [6, 13]: 30
- Barnyardgrass damage rating [6, 17]: 60
- Barnyardgrass damage rating [6, 18]: 80
- Corn damage rating (corn (Zea mays) [7]; [16]): 30
- Corn damage rating (100=total damage to plant; 0=no damage to plant) (corn (Zea mays) [7]; 250 g ai/ha): 80
- plant injury at 15.625 g/ha (corn (Zea mays) [7]; Zea mays, pre-emergence, 312 h, 15.625 g ai/ha, read-out: Corn damage rating (100=total damage to plant; 0=no damage to plant)): 0%
- Morningglory, Ivy-leaved damage rating (100=total damage to plant; 0=no damage to plant) [8]: 20
- pest or weed control at 15.625 g/ha ([8]; Ipomoea, pre-emergence, 312 h, 15.625 g ai/ha, read-out: Morningglory, Ivy-leaved damage rating (100=total damage to plant; 0=no damage to plant)): 0%
- pest or weed control at 62.5 g/ha ([8]; Ipomoea, pre-emergence, 312 h, 62.5 g ai/ha, 100=total damage to plant, 0=no damage to plant, read-out: Morningglory, Ivy-leaved damage rating): 0%
- Foxtail, Giant damage rating (100=total damage to plant; 0=no damage to plant) ([9]; 15.625 g ai/ha): 60
- Foxtail, Giant damage rating [9, 16]: 90
- Foxtail, Giant damage rating (100=total damage to plant; 0=no damage to plant) ([9]; 250 g ai/ha): 90
- Pigweed, Redroot damage rating [10, 16]: 40
- Pigweed, Redroot damage rating (100=total damage to plant; 0=no damage to plant) ([10]; 250 g ai/ha): 80
- pest or weed control at 15.625 g/ha ([10]; Amaranthus retroflexus, pre-emergence, 312 h, 15.625 g ai/ha, read-out: Pigweed, Redroot damage rating (100=total damage to plant; 0=no damage to plant)): 0%
- Velvetleaf damage rating [11, 16]: 10
- Velvetleaf damage rating (100=total damage to plant; 0=no damage to plant) ([11]; 250 g ai/ha): 50
- pest or weed control at 15.625 g/ha ([11]; Abutilon theophrasti, pre-emergence, 312 h, 15.625 g ai/ha, read-out: Velvetleaf damage rating (100=total damage to plant; 0=no damage to plant)): 0%
- Barnyardgrass damage rating [12, 16]: 80
- Barnyardgrass damage rating (100=total damage to plant; 0=no damage to plant) ([12]; 250 g ai/ha): 80
- pest or weed control at 15.625 g/ha ([12]; Echinochloa crus-galli, pre-emergence, 312 h, 15.625 g ai/ha, read-out: Barnyardgrass damage rating (100=total damage to plant; 0=no damage to plant)): 0%
